One data set has as its system sensory nerve fibers. The experiment in a line: Histological test: density of sensory nerve fibers in skin biopsies (NF200, TRPV1 antibodies). Type of data set: in vivo, SCF transgenic mice of the C57BL6 line. The following applies: 200 μg/mL in base cream, after the 8-week treatment of example 2a. An excerpt: The in vivo ability of the NGF 1-14 peptide and the NGF whole protein to increase the density of nerve endings was compared.
After the treatment described in example 2a, the animals were sacrificed and skin samples (3 biopsies per point) were taken both from the area treated with NGF1-14 or with NGF, and from the untreated area, for each animal, for the purpose of histological examination.
To evaluate the density of sensory nerve fibers, antibodies directed against the neurofilament protein 200 (NF200; Sigma) specific for large diameter fibers, and antibodies directed against the transient receptor potential vanilloid 1 (TRPV1, Neuromics) were used to measure peripheral sensory fibers (small diameter).

Data set [1] has as its system mouse model of human vitiligo. Kind of data set: In vivo efficacy test: skin re-pigmentation, depigmentation score 0 to 5. Further details: species or system SCF transgenic mice of the C57BL6 line. The following applies: 200 μg/mL in base cream, topical, twice a day for 8 weeks; 0 to 5 point scale. On the procedure: The in vivo capacity of skin re-pigmentation by the NGF 1-14 peptide and the whole NGF protein was compared.
The study was conducted on a mouse model of human vitiligo.
SCF transgenic mice of the C57BL6 line, treated for 10-12 weeks to induce vitiligo using CD8+T cells specific for melanocytes, were shaved twice a week in the dorsal part affected by depigmentation, with an electric razor, in an area of about 6 cm×6 cm. The animals were divided into two groups of equal numbers (8 animals per group). On a first group of animals, topical administration was carried out in two sites of the shaved area spaced from both sides of the midline, applying on the left a topical preparation containing 200 μg/mL of NGF peptide in a base cream vehicle, while on the right side only the base cream (control) was applied. The same procedure was repeated on the second group of animals, applying on the left a topical preparation containing 200 μg/mL of NGF 1-14 peptide in a base cream vehicle, while on the right side only the base cream (control) was applied.
The application was spread evenly twice a day for 8 weeks, in the central part of the shaved area, on a surface of about 2 cm×2 cm. Starting from the second day and thereafter, the areas of interest were cleaned with a cloth before applying the preparations. The animals were kept away from possible sources of ultraviolet light irradiation.
Quantification of epidermal depigmentation was performed using a subjective scoring system based on a 0 to 5 point scale, where 5 represents the most severe degree of depigmentation, reported in the literature (Rebecca L. et al., Curr Protoc Immunol. (2019), 124(1)—February). A trained researcher blinded to the details of the experiment performed the evaluation at the treated site.

Data set [2] has as its system primary cell cultures of normal human melanocytes. Kind of data set: In vitro melanin production by melanocytes (melanin content by ELISA). In kind it is cell-based. The following applies: concentration at which 50% of the maximum concentration of cellular melanin is observed; cultured for one week. As for the experimental part:
The in vitro ability of the NGF 1-14 peptide and the NGF whole protein to activate melanin production by melanocytes was compared.
According to already established protocols, primary cell cultures of normal human melanocytes were seeded in Petri dishes and cultured for one week, with and without the presence of the NGF 1-14 peptide at various concentrations, using the whole human NGF protein as a control. The melanin content was measured with the ELISA enzyme immunoassay. The maximum melanin concentration, measured as the difference from baseline, was experimentally determined from the plateau of the dose response curves of NGF and NGF 1-14. The EC50 represents the concentration of NGF 1-14 or NGF at which 50% of the maximum concentration of cellular melanin is observed.

Another data set concerns Sprague-Dawley rats. Kind of data set: In vivo tolerability test: plantar thermal hyperalgesia test (Hargreaves apparatus), paw retraction latency. The conditions noted are these: for hyperalgesic activity compared to the saline group (paw retraction latency): 1, 3, 5 and 24 h after injection, P<0.001.

Where no end group is shown, it is not given here.

Method for Sprague-Dawley rats: The in vivo intra-implant tolerability of the NGF 1-14 peptide was evaluated in comparison with the whole protein NGF.
Tyrode's isotonic solution containing the rh-NGF protein in concentrations from 5 to 20 μg/mL and the vehicle was administered intra-implantally in the dorsal region of Sprague-Dawley rats (10 animals for each concentration), in a volume of 0.05 mL using a very fine syringe.
Tyrode's isotonic solution containing the murine-NGF protein in concentrations from 5 to 20 μg/mL and the vehicle was administered intra-implantally in the dorsal region of Sprague-Dawley rats (10 animals for each concentration), in a volume of 0.05 mL using a very fine syringe.
Tyrode's isotonic solution containing the NGF 1-14 peptide in concentrations from 5 to 20 μg/mL and the vehicle was administered intra-implantally in the dorsal region of Sprague-Dawley rats (10 animals for each concentration), in a volume of 0.05 mL using a very fine syringe.
The solution was administered intra-implantally in the dorsal region of Sprague-Dawley rats (10 animals for each concentration), in a volume of 0.05 mL using a very fine syringe.
After the intra-implant injections, the Plantar thermal hyperalgesia test was conducted. In particular: after 1, 3, 5 and 24 h the thermal sensitivity was determined using the Hargreaves apparatus (HA).
Hypersensitivity to heat was assessed using the rat plantar test apparatus (Ugo Basile, Italy) following the method described by Hargreaves et al. (1988). The plantar test uses three perspex boxes (22×19×25 cm) placed on an elevated glass table. The rats were housed in each box, so that 3 rats could be tested simultaneously in a single apparatus and allowed to acclimate for at least 10 minutes. A mobile infrared heat source was applied to the plantar surface of the hind legs.
Paw retraction latency was defined as the time (in seconds) it took the rat to remove the hind leg from the heat source. The heat source was calibrated to an intensity of 15 IR and a cut-off of 50 sec was applied to prevent tissue damage. The test was performed at 1, 3, 5 and 24 hours after the injection. Each paw was tested twice per session (raw data represents the average of 2 measurements performed at an interval of approximately 5 minutes).

On to “NGF: Nerve growth factor, whole human NGF protein used as a control”, for which the “Nerve endings density (mm/mm^3) NF200” value in the data set with sensory nerve fibers (large diameter fibers) is given as 350 + 50 mm/mm^3. Moreover, the “Nerve termination density unit of measurement (mm/mm^3) TRPV1” value in the data set with sensory nerve fibers (small diameter peripheral sensory fibers) is listed as 200 + 36 mm/mm^3. In data set [1], the “percentage of animals with a degree of depigmentation less than or equal to 2” value is reported as 37.5%, the “percentage of animals with a moderate degree of depigmentation equal to 3” value is on record as 37.5% and the “percentage of animals with a severe degree of depigmentation greater than or equal to 4” value is reported as 25%. The substance also gave an EC50 in data set [2] of 0.06 nM.

With “SSSHPIFHRGEFSV [NGF 1-14, SSSHPIFHRGEFSV]”, the “hyperalgesic activity compared to the saline group (paw retraction latency)” value in the data set on Sprague-Dawley rats (10 μg/50 μL) and with Sprague-Dawley rats (20 μg/50 μL) was “showed hyperalgesic activity” in each case. In addition, in data set [2], the EC50 came to 1200 nM.

Turning to “rh-NGF: rh-NGF protein, whole protein NGF comparator in the tolerability test”, in the data set on Sprague-Dawley rats (10 μg/50 μL), the “hyperalgesic activity compared to the saline group (paw retraction latency)” value was “showed hyperalgesic activity”. In the data set on Sprague-Dawley rats (10 μg/50 μL, P<0.05 at 1-3-24 h and P<0.01 at 5 h), the “hyperalgesic effect compared with NGF 1-14 at 10 and 20 μg/50 μL” value is reported as “more pronounced significant hyperalgesic effect”.

The values above are taken from patent publication US20230355713A1, “PEPTIDE FOR THERAPEUTIC APPLICATIONS IN THE DERMATOLOGICAL FIELD” (Dompe' Farmaceutici S.P.A., priority 2020, published 2023).
